Reference: patent US10266526B2, “Substituted 1,2,3-triazoles as SMYD inhibitors for treating cancer” (EPIZYME, INC., priority 2014, dated 2019)

target: SMYD3 (Homo sapiens (Human), UniProt Q9H7B4); assay: SMYD3 biochemical assay (SMYD3 enzyme assay on MEKK2 protein substrate, 3H-SAM scintillation proximity assay); settings: Table 1A; average of n = 1 to n = 50; read-out: SMYD3 Biochem IC50
Description: S-adenosylmethionine (SAM), S-adenosylhomocysteine (SAH), Tris, Tween20, dimethylsulfoxide (DMSO), bovine skin gelatin (BSG), and Tris(2-carboxyethyl)phosphine hydrochloride solution (TCEP) were purchased from Sigma-Aldrich at the highest level of purity possible. ^3H-SAM was purchase from American Radiolabeled Chemicals with a specific activity of 80 Ci/mmol. 384-well opaque white OptiPlates and SPA beads (Perkin Elmer, catalog # RPNQ0013) were purchased from PerkinElmer.
N-terminally GST-tagged MEKK2 (MAP3K2) protein corresponding to reference sequence AAF63496.3 was purchased from Life Technologies (catalog # PV4010). This protein was expressed in High Five insect cells and purified to >85% purity. Protein identity was confirmed by MS/MS analysis after proteolytic digestion. The protein sequence used was:
Full-length human SMYD3 isoform 1 (BAB86333) was inserted into a modified pET21b plasmid containing a His6 tag and TEV and SUMO cleavage sites.
E. coli (BL21 codonplus RIL strain, Stratagene) were transformed with plasmid pEPZ553 by mixing competent cells and plasmid DNA and incubating on ice for 30 minutes followed by heat shock at 42° C. for 1 minute and cooling on ice for 2 minutes. Transformed cells were grown and selected on LB agar with 100 μg/mL ampicillin and 17 μg/mL chloramphenicol at 37° C. overnight. A single clone was used to inoculate 200 mL of LB medium with 100 μg/mL ampicillin and 17 μg/mL chloramphenicol and incubated at 37° C. on an orbital shaker at 180 rpm. Once in log growth, the culture was diluted 1:100 into 2 L of LB medium and grown until OD600 was about 0.3 after which the culture was incubated at 15° C. and 160 rpm. Once OD600 reached about 0.4, IPTG was added to a final concentration of 0.1 mM and the cells were grown overnight at 15° C. and 160 rpm. Cells were harvested by centrifugation at 8000 rpm, for 4 minutes at 4° C. and stored at −80° C. for purification.
The column was washed with Buffer B (Buffer A plus 20 mM imidazole) and His-tagged SMYD3 was eluted with Buffer C (Buffer A plus 300 mM imidazole). The His tag, TEV and SUMO cleavage sites were removed generating native SMYD3 by addition of ULP1 protein at a ratio of 1:200 (ULP1:SMYD3). Imidazole was removed by dialysis overnight in Buffer A. The dialyzed solution was applied to a second Nickel column and the native SMYD3 protein was collected from the column flow-through. The flow-through was dialyzed in Buffer D (25 mM Tris, 5% glycerol, 5 mM β-mercaptoethanol, 50 mM NaCl, pH7.8) and ULP1 was removed using a Q sepharose fast flow column.
General Procedure for SMYD3 Enzyme Assays on MEKK2 Protein Substrate
The assays were all performed in a buffer consisting of 25 mM Tris-Cl pH 8.0, 1 mM TCEP, 0.005% BSG, and 0.005% Tween 20, prepared on the day of use. […] DMSO (1 ul) was added to Columns 11, 12, 23, 24, rows A-H for the maximum signal control and 1 ul of SAH, a known product and inhibitor of SMYD3, was added to columns 11, 12, 23, 24, rows I-P for the minimum signal control. A cocktail (40 ul) containing the SMYD3 enzyme was added by Multidrop Combi (Thermo-Fisher). The compounds were allowed to incubate with SMYD3 for 30 min at room temperature, then a cocktail (10 ul) containing SAM and MEKK2 was added to initiate the reaction (final volume=51 ul). […] The assays were stopped by the addition of non-radiolabeled SAM (10 ul) to a final concentration of 100 uM, which dilutes the ^3H-SAM to a level where its incorporation into MEKK2 is no longer detectable. Radiolabeled MEKK2 was detected using a scintillation proximity assay (SPA). 10 uL of a 10 mg/mL solution of SPA beads in 0.5 M citric acid was added and the plates centrifuged at 600 rpm for 1 min to precipitate the radiolabeled MEKK2 onto the SPA beads.

SMYD3, sequence (Q9H7B4 whole entry): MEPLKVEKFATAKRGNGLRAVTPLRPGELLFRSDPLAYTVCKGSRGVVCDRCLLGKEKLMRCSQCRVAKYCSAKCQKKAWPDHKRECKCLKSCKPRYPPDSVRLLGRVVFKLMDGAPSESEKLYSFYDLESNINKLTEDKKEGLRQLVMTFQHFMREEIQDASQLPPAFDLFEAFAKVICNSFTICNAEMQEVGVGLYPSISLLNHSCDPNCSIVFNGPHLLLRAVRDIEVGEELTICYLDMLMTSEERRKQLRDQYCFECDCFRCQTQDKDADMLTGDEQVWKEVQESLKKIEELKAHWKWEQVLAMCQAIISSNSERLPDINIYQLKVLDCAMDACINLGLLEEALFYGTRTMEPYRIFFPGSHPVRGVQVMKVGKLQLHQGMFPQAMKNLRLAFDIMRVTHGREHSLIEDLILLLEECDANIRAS

With `NCCCC(=O)N[C@H]1CC[C@H](NC(=O)c2nnc[nH]2)CC1` [compound 540, N-((1r,4r)-4-(4-aminobutanamido)cyclohexyl)-4H-1,2,4-triazole-3-carboxamide] as the molecule, how does the IC50 read?
The IC50 was > 50 µM.

How did the IC50 turn out when `C[C@@H]1C[C@H](NC(=O)c2ccccc2)CCN1C(=O)C1CCC(N)CC1` (mixture of isomers) [compound 558, (±)-cis-N-(1-(4-aminocyclohexane-1-carbonyl)-2-methylpiperidin-4-yl)benzamide] was run?
Its IC50 is > 10 µM.

same assay, conditions: read-out: SMYD3 Biochem IC50

With `N[C@H]1CC[C@H](NC(=O)CCCn2ccnc2)CC1` [compound 333, N-((1r,4r)-4-aminocyclohexyl)-4-(1H-imidazol-1-yl)butanamide] as the molecule, how does the IC50 read?
The IC50 was > 100 µM.

How did the IC50 turn out when `NCCC(=O)N[C@H]1CC[C@H](NC(=O)c2cnc3ccccc3n2)CC1` [compound 373, N-((1r,4r)-4-(3-aminopropanamido)cyclohexyl)quinoxaline-2-carboxamide] was run?
The IC50 was > 100 µM.

Which IC50 does the source give for `Cc1c(C(=O)N[C@H]2CC[C@H](NC(=O)CCN)CC2)nnn1-c1ccccc1` [compound 401, N-((1r,4r)-4-(3-aminopropanamido)cyclohexyl)-5-methyl-1-phenyl-1H-1,2,3-triazole-4-carboxamide] here?
The IC50 was > 100 µM.

How did the IC50 turn out when `NCCC(=O)N[C@H]1CC[C@H](NC(=O)c2cn3ncccc3n2)CC1` [compound 446, N-((1r,4r)-4-(3-aminopropanamido)cyclohexyl)imidazo[1,2-b]pyridazine-2-carboxamide] was run?
The IC50 was > 100 µM.

How did the IC50 turn out when `N[C@H]1CC[C@H](NC(=O)c2ncc[nH]2)CC1` [compound 502, N-((1r,4r)-4-aminocyclohexyl)-1H-imidazole-2-carboxamide] was run?
The IC50 was > 100 µM.

For `NCCC(=O)N[C@H]1CC[C@H](NC(=O)C2C[C@@H]3C=C[C@H]2C3)CC1` (stereo partly drawn) [compound 416, (1R,4R)-N-((1r,4R)-4-(3-aminopropanamido)cyclohexyl)bicyclo[2.2.1]hept-5-ene-2-carboxamide], which IC50 is on record?
The IC50 was > 100 µM.

How did the IC50 turn out when `CC(NC(=O)c1noc(C2CC2)n1)C1CCN(C(=O)[C@H](C)N)CC1` (stereo partly drawn) [compound 464, N-(1-(1-(L-alanyl)piperidin-4-yl)ethyl)-5-cyclopropyl-1,2,4-oxadiazole-3-carboxamide] was run?
The IC50 was 32.7 µM.

With `Cc1ncc(C(=O)NC(C)C2CCN(C(=O)[C@H](C)N)CC2)cn1` (stereo partly drawn) [compound 183, N-(1-(1-(L-alanyl)piperidin-4-yl)ethyl)-2-methylpyrimidine-5-carboxamide] as the molecule, how does the IC50 read?
Its IC50 is > 100 µM.

How did the IC50 turn out when `CC(NC(=O)c1ccc(Cl)cc1C(F)(F)F)C1CCN(C(=O)[C@H](C)N)CC1` (stereo partly drawn) [compound 263, N-(1-(1-(L-alanyl)piperidin-4-yl)ethyl)-4-chloro-2-(trifluoromethyl)benzamide] was run?
The IC50 was > 100 µM.

Which IC50 does the source give for `Cc1cnccc1C(=O)N[C@H]1CC[C@H](NC(=O)CCN)CC1` [compound 379, N-((1r,4r)-4-(3-aminopropanamido)cyclohexyl)-3-methylisonicotinamide] here?
Its IC50 is > 100 µM.

For `COc1cccc2[nH]cc(C(=O)N[C@H]3CC[C@H](N)CC3)c12` [compound 372, N-((1r,4r)-4-aminocyclohexyl)-4-methoxy-1H-indole-3-carboxamide], which IC50 is on record?
The IC50 was > 100 µM.

For `N[C@H]1CC[C@H](NC(=O)c2cccc(F)n2)CC1` [compound 389, N-((1r,4r)-4-aminocyclohexyl)-6-fluoropicolinamide], which IC50 is on record?
Its IC50 is > 100 µM.

Which IC50 does the source give for `NCCC(=O)N[C@H]1CC[C@H](NC(=O)c2ccc3c(c2)CC(=O)N3)CC1` [compound 471, N-((1r,4r)-4-(3-aminopropanamido)cyclohexyl)-2-oxoindoline-5-carboxamide] here?
The IC50 was 0.61 µM.

How did the IC50 turn out when `NCCC(=O)N[C@H]1CC[C@H](NC(=O)c2ccc(O)nc2)CC1` [compound 294, N-((1r,4r)-4-(3-aminopropanamido)cyclohexyl)-6-hydroxynicotinamide] was run?
The IC50 was > 100 µM.

`N[C@H]1CC[C@H](NC(=O)[C@H]2C[C@H](O)CN2)CC1` [compound 435, (2R,4S)-N-((1r,4r)-4-aminocyclohexyl)-4-hydroxypyrrolidine-2-carboxamide] was tested. Which IC50 did it give?
The IC50 was > 100 µM.

With `NCCC(=O)N[C@H]1CC[C@H](NC(=O)c2cnccc2N)CC1` [compound 288, 4-amino-N-((1r,4r)-4-(3-aminopropanamido)cyclohexyl)nicotinamide] as the molecule, how does the IC50 read?
The IC50 was > 100 µM.

How did the IC50 turn out when `Cc1nc2ccccc2c(C(=O)N[C@H]2CC[C@H](NC(=O)CCN)CC2)c1N` [compound 478, 3-amino-N-((1r,4r)-4-(3-aminopropanamido)cyclohexyl)-2-methylquinoline-4-carboxamide] was run?
Its IC50 is 31.6 µM.

For `N[C@H]1CC[C@H](NC(=O)c2nc3ccccc3s2)CC1` [compound 367, N-((1r,4r)-4-aminocyclohexyl)benzo[d]thiazole-2-carboxamide], which IC50 is on record?
The IC50 was > 100 µM.

For `N[C@H]1CC[C@H](NC(=O)c2ccc3nonc3c2)CC1` [compound 287, N-((1r,4r)-4-aminocyclohexyl)benzo[c][1,2,5]oxadiazole-5-carboxamide], which IC50 is on record?
The IC50 was > 100 µM.

For `CC(NC(=O)c1ccc2cnn(C)c2c1)C1CCN(C(=O)[C@H](C)N)CC1` (stereo partly drawn) [compound 219, N-(1-(1-(L-alanyl)piperidin-4-yl)ethyl)-1-methyl-1H-indazole-6-carboxamide], which IC50 is on record?
Its IC50 is > 100 µM.

How did the IC50 turn out when `N[C@H]1CC[C@H](NC(=O)c2ccc(Cl)cc2C(F)(F)F)CC1` [compound 358, N-((1r,4r)-4-aminocyclohexyl)-4-chloro-2-(trifluoromethyl)benzamide] was run?
Its IC50 is > 100 µM.

`N[C@H]1CC[C@H](NS(=O)(=O)c2ccc3c(c2)CC(=O)N3)CC1` [compound 429, N-((1r,4r)-4-aminocyclohexyl)-2-oxoindoline-5-sulfonamide] was tested. Which IC50 did it give?
The IC50 was 14.5 µM.

How did the IC50 turn out when `NCCC(=O)N[C@H]1CC[C@H](NC(=O)c2cccc3[nH]ccc23)CC1` [compound 290, N-((1r,4r)-4-(3-aminopropanamido)cyclohexyl)-1H-indole-4-carboxamide] was run?
The IC50 was > 100 µM.

For `NCCC(=O)N[C@H]1CC[C@H](NC(=O)c2nc3ccccc3[nH]2)CC1` [compound 374, N-((1r,4r)-4-(3-aminopropanamido)cyclohexyl)-1H-benzo[d]imidazole-2-carboxamide], which IC50 is on record?
The IC50 was 86.6 µM.

same assay, conditions: read-out: SMYD3 Biochem IC50 (μM)*

How did the IC50 turn out when `CC(NC(=O)c1cccnc1)C1CCN(C(=O)[C@H](C)N)CC1` (stereo partly drawn) [compound 141, N-(1-(1-(L-alanyl)piperidin-4-yl)ethyl)nicotinamide] was run?
The IC50 was > 100 µM.

For `N[C@H]1CC[C@H](NC(=O)c2ccc3nc[nH]c3c2)CC1` [compound 161, N-((1r,4r)-4-aminocyclohexyl)-1H-benzo[d]imidazole-6-carboxamide], which IC50 is on record?
Its IC50 is > 100 µM.

With `N[C@H]1CC[C@H](NC(=O)c2cncc(Cl)c2)CC1` [compound 117, N-((1r,4r)-4-aminocyclohexyl)-5-chloronicotinamide] as the molecule, how does the IC50 read?
The IC50 was 87 µM.

For `Nc1ccc2cc(C(=O)N[C@H]3CC[C@H](N)CC3)ccc2c1` [compound 75, 6-amino-N-((1r,4r)-4-aminocyclohexyl)-2-naphthamide], which IC50 is on record?
The IC50 was 62.5 µM.

Which IC50 does the source give for `CCc1cncc(C(=O)N[C@H]2CC[C@H](N)CC2)c1` [compound 22, N-((1r,4r)-4-aminocyclohexyl)-5-ethylnicotinamide] here?
The IC50 was 31.3 µM.

`CCc1ncc(C(=O)N[C@H]2CC[C@H](N)CC2)s1` [compound 59, N-((1r,4r)-4-aminocyclohexyl)-2-ethylthiazole-5-carboxamide] was tested. Which IC50 did it give?
Its IC50 is 184 µM.

Which IC50 does the source give for `N[C@H]1CC[C@H](NC(=O)c2ccc3[nH]c(=O)oc3c2)CC1` [compound 90, N-((1r,4r)-4-aminocyclohexyl)-2-oxo-2,3-dihydrobenzo[d]oxazole-6-carboxamide] here?
Its IC50 is 9.76 µM.
